One substance from patent US20040001818A1, “Methods of inhibiting angiogenesis using NADPH oxidase inhibitors” (priority 2000, published 2004) can be followed below.

The subject of assay [1] is MnSOD mRNA. In words: Northern blot of MnSOD mRNA in HCAECs. Format: cell-based, human. The method, then: Cell culture. Human coronary artery endothelial cells (HCAECs) (Clonetics Corporation, San Diego, Calif., USA) and human pulmonary artery endothelial cells (HPAECs) were grown in Endothelial Growth Medium-2-MV (EGM-2-MV) BulletKit (Clonetics Corporation, San Diego, Calif., USA). At 80-90% confluence, the cells were serum-starved in DMEM containing 0.5% FBS for 24 hours and subsequently treated with VEGF-supplemented medium for the times indicated. Human recombinant VEGF was purchased from PeproTech, Inc. (Rocky Hill, N.J., USA). […] In other studies, the serum-starved cells were pretreated with the MEK inhibitor PD98059 at a final concentration of 50 μM or a specific PKC inhibitor bisindolylmaleimide I (BIM; CalBiochem, San Diego, Calif., USA) at a final concentration of 5 μM for 30 minutes prior to addition of growth factors. An equal amount of DMSO was added to the control plates. Northern blot analyses. Ten micrograms total RNA was loaded on a 0.7% formaldehyde-containing agarose gel. The RNA was transferred to nylon membrane, covalently cross-linked with UV radiation, prehybridized for 6 hours, and hybridized for 18 hours at 42° C. with a [^32P]dCTP-labeled cDNA probe containing MnSOD or eNOS cDNA sequence. The membranes were subsequently stripped and probed with a radiolabeled 18S-ribosome probe. For actinomycin D experiments, HCAEC cells were pretreated with 10 μg/ml actinomycin D (Sigma Chemical Company, St. Louis, Mo., USA) for 30 minutes before addition of VEGF and were harvested for total RNA one hour later.
To determine whether VEGF induced expression of MnSOD in primary endothelial cell cultures, HCAECs and HPAECs were serum starved for 24 hours, treated with 40 ng/ml VEGF for 0, 0.5, 1, 2, 4, 12 and 24 hours, and then harvested for total RNA. Northern blots were performed and probed for human MnSOD. […] The membranes were then stripped and reprobed for eNOS.
To determine whether the response of MnSOD to VEGF was mediated by ROS, HCAECs were serum starved and then treated with VEGF in the absence or presence of inhibitors of NADPH oxidase (DPI, apocynin), xanthine oxidase (allopurinol) and nitric oxide synthase (L-NAME).

The next assay deals with ROS. In words: ROS generation: DCF oxidation by flow cytometry in DCFDA-labeled HCAECs. The following applies: relative to basal rate of control cells. In kind it is cell-based, human. The procedure: (§1) Western blot analyses. Whole cell protein extracts were prepared from serum-starved HCAECs and HPAECs one hour following addition of growth factor-supplemented or mock-treated media. Cells were washed twice with cold phosphate-buffered saline, harvested with a cell scraper, and lysed in ice-cold lysis buffer containing 20 mM HEPES, pH 7.5, 150 mM NaCl, 1% NP-40, 0.1% SDS, 1 mM EDTA, 1 mM DTT, 0.5 mM phenylmethylsulfonyl fluoride (PMSF), and the protease inhibitor cocktail (Boehringer Mannheim, Mannheim, Germany) for one hour. The resulting lysates were centrifuged at 10,000× g for 20 minutes and the supernatants were saved as whole cell protein extracts. Forty micrograms of protein were separated by 10% SDS-PAGE and electrotransferred to nitrocellulose membranes. Membranes were blocked with 5% nonfat dry milk in Tris-buffered saline with 0.1% Tween 20 for one hour at room temperature. The blot was incubated with primary rabbit polyclonal anti-MnSOD IgG (1:1000 dilution) (Santa Cruz Biotechnology Inc., Santa Cruz, Calif., USA) overnight at 4° C., followed by secondary antibody goat-anti-rabbit horseradish peroxidase conjugate (1:1000 dilution) (Pierce, Rockford, Ill., USA). The blot was washed extensively between each incubation step. Peroxidase activity was visualized with an enhanced chemiluminescense substrate system (Amersham, Arlington Heights, Ill., USA). Membranes were stripped and probed for eNOS and β-actin. Flow cytometry. Endothelial cells were labeled with DCFDA and oxidation of DCF was measured by flow cytometry.
To test whether VEGF increases ROS production in endothelial cells, HCAECs were labeled with […] DCFDA and oxidation of DCF was measured by flow cytometry. […] PMS is known to induce free oxygen radicals.

The test system of assay [2] is MnSOD mRNA. The assay can be described thus: Northern blot of MnSOD mRNA in organs of mice after intraperitoneal VEGF. In kind it is in vivo, mouse. The following applies: four hours after intraperitoneal injection of 20 μg VEGF. The procedure: Mice and injection of growth factors. Female FVB mice (4 to 8 weeks old; 18 to 22 grams) were obtained from Taconic (Germantown, N.Y., USA). All protocols were approved by the Institutional Animal Care and Use Committee of the Beth Israel Deaconess Medical Center. Mice were injected intraperitoneally with VEGF (1.0 μg/g body weight).
Injection of VEGF into the intraperitoneal cavity of mice results in widespread distribution of the growth factor and phosphorylation of the VEGF receptor, Flk-1. In this study, therefore, organs were removed from mice four hours following intraperitoneal injection of either normal saline or 20 μg VEGF and harvested for total RNA. Northern blot analyses were then carried out to determine whether VEGF induced the expression of a panel of genes, including MnSOD.

In assay [3] the test system is MnSOD mRNA. The following applies: HPAEC, 40 ng/ml VEGF. The method, then: (§2) Cell culture. Human coronary artery endothelial cells (HCAECs) (Clonetics Corporation, San Diego, Calif., USA) and human pulmonary artery endothelial cells (HPAECs) were grown in Endothelial Growth Medium-2-MV (EGM-2-MV) BulletKit (Clonetics Corporation, San Diego, Calif., USA). At 80-90% confluence, the cells were serum-starved in DMEM containing 0.5% FBS for 24 hours and subsequently treated with VEGF-supplemented medium for the times indicated. Human recombinant VEGF was purchased from PeproTech, Inc. (Rocky Hill, N.J., USA). In inhibition studies, the serum-starved HCAEC cells were preincubated with diphenyleneiodonium (DPI), apocynin, allopurinol, L-NAME, or anthrone for one hour and then incubated in the absence or presence of 40 ng/ml VEGF for another hour. In other studies, the serum-starved cells were pretreated with the MEK inhibitor PD98059 at a final concentration of 50 μM or a specific PKC inhibitor bisindolylmaleimide I (BIM; CalBiochem, San Diego, Calif., USA) at a final concentration of 5 μM for 30 minutes prior to addition of growth factors. An equal amount of DMSO was added to the control plates. Northern blot analyses. Ten micrograms total RNA was loaded on a 0.7% formaldehyde-containing agarose gel. The RNA was transferred to nylon membrane, covalently cross-linked with UV radiation, prehybridized for 6 hours, and hybridized for 18 hours at 42° C. with a [^32P]dCTP-labeled cDNA probe containing MnSOD or eNOS cDNA sequence. The membranes were subsequently stripped and probed with a radiolabeled 18S-ribosome probe. For actinomycin D experiments, HCAEC cells were pretreated with 10 μg/ml actinomycin D (Sigma Chemical Company, St. Louis, Mo., USA) for 30 minutes before addition of VEGF and were harvested for total RNA one hour later.
(§3) To determine whether VEGF induced expression of MnSOD in primary endothelial cell cultures, HCAECs and HPAECs were serum starved for 24 hours, treated with 40 ng/ml VEGF for 0, 0.5, 1, 2, 4, 12 and 24 hours, and then harvested for total RNA. Northern blots were performed and probed for human MnSOD. […]

Another assay has as its system eNOS mRNA. The following applies: either cell type (HCAEC, HPAEC), 40 ng/ml VEGF. The method, then: as §2, §3
In the next assay the test system is MnSOD protein. The following applies: 40 ng/ml VEGF; for MnSOD protein: 0.5-24 hours. The procedure: as §1
Serum-starved HCAECs and HPAECs were treated with 40 ng/ml VEGF for 0.5-24 hours and then harvested for total protein.

The subject of the next assay is eNOS protein. The following applies: 40 ng/ml VEGF, any time point 0.5-24 hours. The procedure:
as §1, with “Peroxidase activity was visualized with an enhanced chemiluminescense substrate system (Amersham, Arlington Heights, Ill., USA). Membranes were stripped and probed for eNOS and β-actin. Flow cytometry.” left out

Like-named read-outs stand apart in the source and are kept apart here.

VEGF: the “time of peak MnSOD mRNA levels” value with MnSOD mRNA [1] (HCAEC, 40 ng/ml VEGF) was 4 h; in the assay with MnSOD mRNA [3] it was 4 h. The “MnSOD mRNA levels” value in the assay on MnSOD mRNA [1] (HCAEC, 40 ng/ml VEGF, between one hour and 24 hours) is on record as “increased”; with MnSOD mRNA [3] (between 2 and 24 hours), “increased”. The “VEGF concentration of maximal MnSOD induction” value in the assay on MnSOD mRNA [1] (dose-response 0, 1, 5, 10, 100 ng/ml VEGF) was determined as 100 ng/mL. Further, the “DCF oxidation (ROS production)” value in the assay on ROS is on record as “no change”. For the same substance, the “MnSOD mRNA levels in other tissues (lung, brain, liver, spleen, skeletal muscle)” value in the assay on MnSOD mRNA [2] is recorded as “not”. For the same substance, the “MnSOD mRNA levels in the heart and the kidney” value in the assay on MnSOD mRNA [2] is reported as “increased”. For the same substance, the “eNOS mRNA induction” value in the assay on eNOS mRNA is reported as “not induced”. Besides, the “time of maximal MnSOD protein levels” value in the assay with MnSOD protein (HCAECs) and in the assay on MnSOD protein (HPAECs) was 12 to 24 h throughout. Moreover, the MnSOD protein result in the assay on MnSOD protein (HCAECs) and in the assay on MnSOD protein (HPAECs) was “significantly induced” each time. In the assay on eNOS protein, the eNOS protein levels result is listed as “did not increase”.
